Like-named read-outs stand apart in the source and are kept apart here.
Columns and labels:
Format in all cases: cell-based
Aβ-38 = test: MSD Human (6E10) Ab 3-PLEX elisa, conditioned media of 2B7 cells: Aβ-38; conditions: Homo sapiens, Aβ-38 (superscript a)
Description: (§1) Assays were conducted to determine the ability of a Compound of Formula I to modulate […], and Aβ-38.
(§2) Plates with capture antibodies were blocked for 1-2 hours at room temperature with 150 μL of the manufactures blocking reagent.
(§3) Conditioned Media: • Cultured 2B7 cells in 96 well plate with 250 uL of media per well until confluent; • Prepared serial dilutions of compounds in DMSO at 100× the final desired concentration; • Washed wells with 2B7 cells 1× with 250 uL of media; • Diluted DMSO stocks 1:100 into media: • Added 250 μL of media containing compounds (1% DMSO) to wells with 2B7 cells for 5 hours at 37° C.
(§4) Elisa Sample Prep: • Diluted conditioned media: 1 part media with 1% DMSO and 1 part blocking buffer; • 150 μL of the 250 μL of conditioned media were used.
(§5) […] CURVE SAMPLE PREP: Prepared per manufacturer's protocol (see above) • Seven point standard curve samples were prepared that contained Aβ-42, Aβ-40, and Aβ-38. The highest concentration of Aβ-42 and Aβ-3-38 was 3,000 pg/mL and the highest concentration of Aβ-40 was 10,000 pg/mL. Subsequent serial dilutions were 1:3 and the final composition of each sample was 1 part blocking buffer and 1 part cell medium containing 1% DMSO.
(§6) Overnight Sample Incubation: • Blocked plates are washed 5× with MSD wash buffer with a plate washer • 25 uL of detection antibody and blocker G reagent in MSD blocking solution is added • 25 uL of samples (1 part conditioned media containing 1% DMSO and 1 part MSD blocking buffer) are then added. • plates are incubated overnight at 4 degrees C. or 2 hours at room temp
(§7) Final Wash and Readout: • Wash wells 5× with MSD wash buffer • Added 150 μL 2×MSD read buffer • Read with MSD imager.
(§8) A-Beta peptide levels for each peptide are calculated from the standard curve using the MSD software provided with the MSD 2400 Imager. Percent vehicle values for each compound dosage were then calculated and fit to a 4 parameter curve generating IC50 values.

Aβ-40 = test: MSD Human (6E10) Ab 3-PLEX elisa, conditioned media of 2B7 cells: Aβ-40; conditions: Homo sapiens; for IC50: Aβ-40 (superscript b); for inhibition at 20 µM: Aβ-40, 20 μM
Description: as §1, §2, §3, §4, §5, §6, §7, §8

Aβ-42 = test: MSD Human (6E10) Ab 3-PLEX elisa, conditioned media of 2B7 cells: Aβ-42; conditions: Homo sapiens; for IC50: Aβ-42 (superscript c); for inhibition at 20 µM: Aβ-42, 20 μM
Description: as §1, §2, §3, §4, §5, §6, §7, §8

| Structure (SMILES) | IC50 (Aβ-38; read-out: 50% reduction value) | IC50 (Aβ-38; read-out: IC50 range) | IC50 (Aβ-40; read-out: 50% reduction value) | IC50 (Aβ-40; read-out: IC50 range) | IC50 (Aβ-42; read-out: 50% reduction value) | IC50 (Aβ-42; read-out: IC50 range) | inhibition at 20 µM (Aβ-42) | inhibition at 20 µM (Aβ-40) |
| --- | --- | --- | --- | --- | --- | --- | --- | --- |
| CO[C@H](C(C)C)C1C[C@@H](C)[C@H]2C(O1)[C@H](O)[C@@]1(C)C3CC[C@H]4C(C)(C)[C@@H](O[C@H]5CNCCO5)CC[C@@]45C[C@@]35CC[C@]21C (stereo partly shown) | 1000 to 10000 nM | 1000 to 10000 nM | 1000 to 10000 nM | 1000 to 10000 nM | 1000 to 10000 nM | 1000 to 10000 nM |  |  |
| CO[C@H](C(C)C)C1C[C@@H](C)[C@H]2C(O1)[C@H](O)[C@@]1(C)C3CC[C@H]4C(C)(C)[C@@H](O)CC[C@@]45C[C@@]35CC[C@]21C (stereo partly shown) | 1000 to 10000 nM |  | > 10000 nM |  |  |  | 25 to 75% |  |
| CNC(=O)O[C@H](C(C)C)C1C[C@@H](C)[C@H]2C(O1)[C@H](O)[C@@]1(C)C3CC[C@H]4C(C)(C)[C@@H](O[C@H]5CNCCO5)CC[C@@]45C[C@@]35CC[C@]21C (stereo partly shown) | < 1000 nM |  | 1000 to 10000 nM | > 10000 nM | < 1000 nM | < 1000 nM | 25 to 75% | 25 to 75% |
| C[C@@H]1CC([C@H](OC(=O)C2CCOCC2)C(C)(C)O)OC2[C@H]1[C@@]1(C)CC[C@@]34C[C@@]35CC[C@H](O)C(C)(C)[C@@H]5CCC4[C@]1(C)[C@H]2O (stereo partly shown) | 1000 to 10000 nM |  |  |  |  |  | 25 to 75% | 25 to 75% |
| C[C@@H]1C[C@H]([C@H](OC(N)=O)C(C)(C)O)O[C@H]2[C@H]1[C@@]1(C)CC[C@@]34C[C@@]35CC[C@H](O[C@H]3CN(C6COC6)CCO3)C(C)(C)[C@@H]5CCC4[C@]1(C)[C@H]2O (stereo partly shown) | 1000 to 10000 nM |  | > 10000 nM |  |  |  | 25 to 75% |  |
| CNC(=O)OC(C)(C)[C@@H](O)[C@H]1C[C@@H](C)[C@H]2[C@H](O1)[C@H](O)[C@@]1(C)C3CC[C@H]4C(C)(C)[C@@H](O)CC[C@@]45C[C@@]35CC[C@]21C (stereo partly shown) | 1000 to 10000 nM |  | > 10000 nM |  |  |  | 25 to 75% |  |
| C[C@@H]1CC(COC(=O)C(C)(C)C)OC2[C@H]1[C@@]1(C)CC[C@@]34C[C@@]35CC[C@H](O[C@H]3CN(C6COC6)CCO3)C(C)(C)[C@@H]5CCC4[C@]1(C)[C@H]2O (stereo partly shown) | 1000 to 10000 nM |  | > 10000 nM |  | > 10000 nM |  |  |  |
| C[C@@H]1CC(COC(=O)C2CC2)OC2[C@H]1[C@@]1(C)CC[C@@]34C[C@@]35CC[C@H](O[C@H]3CN(C6COC6)CCO3)C(C)(C)[C@@H]5CCC4[C@]1(C)[C@H]2O (stereo partly shown) | 1000 to 10000 nM |  | > 10000 nM |  |  |  | < 25% |  |
| CC(C)CC(=O)OCC1C[C@@H](C)[C@H]2C(O1)[C@H](O)[C@@]1(C)C3CC[C@H]4C(C)(C)[C@@H](O[C@H]5CN(C6COC6)CCO5)CC[C@@]45C[C@@]35CC[C@]21C (stereo partly shown) | 1000 to 10000 nM |  |  |  |  |  | 25 to 75% | 25 to 75% |
| CC(C)[C@@H](OC(N)=O)C1C[C@@H](C)[C@H]2C(O1)[C@H](O)[C@@]1(C)[C@@H]3CC[C@H]4C(C)(C)C(O[C@H]5CNCCO5)CC[C@@]45C[C@@]35CC[C@]21C (stereo partly shown) | < 1000 nM |  | 1000 to 10000 nM | 1000 to 10000 nM | < 1000 nM | < 1000 nM |  |  |
| CCO[C@H](C(C)C)C1C[C@@H](C)[C@H]2C(O1)[C@H](O)[C@@]1(C)[C@@H]3CC[C@H]4C(C)(C)C(O[C@H]5CNCCO5)CC[C@@]45C[C@@]35CC[C@]21C (stereo partly shown) | 1000 to 10000 nM |  | 1000 to 10000 nM | 1000 to 10000 nM | 1000 to 10000 nM | 1000 to 10000 nM |  |  |
| CCO[C@H](C(C)C)C1C[C@@H](C)[C@H]2C(O1)[C@H](O)[C@@]1(C)[C@@H]3CC[C@H]4C(C)(C)C(O)CC[C@@]45C[C@@]35CC[C@]21C (stereo partly shown) | 1000 to 10000 nM |  | 1000 to 10000 nM |  | 1000 to 10000 nM |  |  |  |
| CC(C)[C@@H](OC(=O)C1CCC1)C1C[C@@H](C)[C@H]2C(O1)[C@H](O)[C@@]1(C)[C@@H]3CC[C@H]4C(C)(C)C(O)CC[C@@]45C[C@@]35CC[C@]21C (stereo partly shown) | < 1000 nM | 1000 to 10000 nM | 1000 to 10000 nM |  | < 1000 nM |  |  |  |
| CC(C)CC(=O)O[C@@H](C1C[C@@H](C)[C@H]2C(O1)[C@H](O)[C@@]1(C)[C@@H]3CC[C@H]4C(C)(C)C(O)CC[C@@]45C[C@@]35CC[C@]21C)C(C)(C)O (stereo partly shown) | < 1000 nM | < 1000 nM | 1000 to 10000 nM |  | < 1000 nM |  |  |  |

Reference: US20110251379A1, “COMPOUNDS USEFUL FOR TREATING NEURODEGENERATIVE DISORDERS” (Satori Pharmaceuticals, Inc., priority 2010, published 2011)
